The values below come from publication PMC9516332 (Frontiers in Oncology, 2022).

Common to all, as to assay: Kinase panel profiling at 1 µmol/L (MSA or IMAP), percentage inhibition
Common to all, as to assay type: biochemical

Assay [1] concerns the target T1, panel of 255 wild-type kinases (Homo sapiens, UniProt O15264).
T1 sequence (O15264 1-365): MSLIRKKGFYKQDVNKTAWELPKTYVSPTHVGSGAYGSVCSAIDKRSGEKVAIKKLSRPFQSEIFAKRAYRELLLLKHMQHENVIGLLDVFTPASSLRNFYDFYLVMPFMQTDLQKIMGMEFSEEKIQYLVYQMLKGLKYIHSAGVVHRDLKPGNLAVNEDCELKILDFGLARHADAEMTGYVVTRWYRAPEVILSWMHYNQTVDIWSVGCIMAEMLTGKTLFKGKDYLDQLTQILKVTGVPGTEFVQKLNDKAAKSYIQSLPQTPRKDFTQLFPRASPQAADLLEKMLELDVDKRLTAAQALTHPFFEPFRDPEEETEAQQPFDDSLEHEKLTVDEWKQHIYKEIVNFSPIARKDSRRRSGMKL
Particulars: p38δ; 1 µmol/L single concentration; read-out: %-inhibition, p38δ.

The target in assay [2] is panel of 255 wild-type kinases (Homo sapiens, UniProt Q9NYA1). The note with it: kinase SPHK1; 1 µmol/L single concentration; read-out: %-inhibition at 1 µmol/L, SPHK1.
For assay [3], the target named is T2, panel of 255 wild-type kinases (Homo sapiens, UniProt Q9UHD2).
T2 sequence (Q9UHD2 1-729): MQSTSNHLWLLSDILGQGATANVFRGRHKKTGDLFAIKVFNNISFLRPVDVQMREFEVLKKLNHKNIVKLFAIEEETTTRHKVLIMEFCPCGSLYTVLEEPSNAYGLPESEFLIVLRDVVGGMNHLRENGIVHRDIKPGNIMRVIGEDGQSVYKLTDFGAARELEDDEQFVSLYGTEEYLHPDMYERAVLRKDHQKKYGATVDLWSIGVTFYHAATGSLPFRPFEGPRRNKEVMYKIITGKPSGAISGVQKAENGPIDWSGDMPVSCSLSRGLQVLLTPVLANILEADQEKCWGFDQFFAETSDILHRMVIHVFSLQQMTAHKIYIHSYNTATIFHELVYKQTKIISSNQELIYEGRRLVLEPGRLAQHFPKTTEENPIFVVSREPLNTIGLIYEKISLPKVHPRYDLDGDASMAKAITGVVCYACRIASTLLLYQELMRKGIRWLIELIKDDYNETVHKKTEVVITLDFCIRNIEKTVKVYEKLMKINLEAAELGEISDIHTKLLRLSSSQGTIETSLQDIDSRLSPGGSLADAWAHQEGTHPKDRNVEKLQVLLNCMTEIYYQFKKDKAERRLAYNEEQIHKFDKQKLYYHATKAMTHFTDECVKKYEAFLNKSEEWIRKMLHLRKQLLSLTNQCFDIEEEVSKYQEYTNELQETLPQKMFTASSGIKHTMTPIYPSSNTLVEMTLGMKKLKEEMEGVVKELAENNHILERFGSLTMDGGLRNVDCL
Particulars: kinase TBK1; 1 µmol/L single concentration; read-out: %-inhibition at 1 µmol/L, TBK1.

Assay [4] deals with panel of 255 wild-type kinases (Homo sapiens, UniProt P35916). Particulars: kinase FLT4; 1 µmol/L single concentration; read-out: %-inhibition at 1 µmol/L, FLT4.
The target in assay [5] is panel of 255 wild-type kinases (Homo sapiens, UniProt Q06187). Particulars: BTK kinase assay; 1 µmol/L single concentration; read-out: %-inhibition BTK.
Assay [6] deals with panel of 255 wild-type kinases (Homo sapiens, UniProt P00519). The note with it: ABL kinase assay; 1 µmol/L single concentration; read-out: %-inhibition ABL.
Assay [7] addresses panel of 255 wild-type kinases (Homo sapiens, UniProt O60674). The note with it: kinase JAK2; 1 µmol/L single concentration; read-out: %-inhibition at 1 µmol/L, JAK2.
Assay [8] has as its target T3, panel of 255 wild-type kinases (Homo sapiens, UniProt Q02156).
T3 sequence (Q02156 1-737): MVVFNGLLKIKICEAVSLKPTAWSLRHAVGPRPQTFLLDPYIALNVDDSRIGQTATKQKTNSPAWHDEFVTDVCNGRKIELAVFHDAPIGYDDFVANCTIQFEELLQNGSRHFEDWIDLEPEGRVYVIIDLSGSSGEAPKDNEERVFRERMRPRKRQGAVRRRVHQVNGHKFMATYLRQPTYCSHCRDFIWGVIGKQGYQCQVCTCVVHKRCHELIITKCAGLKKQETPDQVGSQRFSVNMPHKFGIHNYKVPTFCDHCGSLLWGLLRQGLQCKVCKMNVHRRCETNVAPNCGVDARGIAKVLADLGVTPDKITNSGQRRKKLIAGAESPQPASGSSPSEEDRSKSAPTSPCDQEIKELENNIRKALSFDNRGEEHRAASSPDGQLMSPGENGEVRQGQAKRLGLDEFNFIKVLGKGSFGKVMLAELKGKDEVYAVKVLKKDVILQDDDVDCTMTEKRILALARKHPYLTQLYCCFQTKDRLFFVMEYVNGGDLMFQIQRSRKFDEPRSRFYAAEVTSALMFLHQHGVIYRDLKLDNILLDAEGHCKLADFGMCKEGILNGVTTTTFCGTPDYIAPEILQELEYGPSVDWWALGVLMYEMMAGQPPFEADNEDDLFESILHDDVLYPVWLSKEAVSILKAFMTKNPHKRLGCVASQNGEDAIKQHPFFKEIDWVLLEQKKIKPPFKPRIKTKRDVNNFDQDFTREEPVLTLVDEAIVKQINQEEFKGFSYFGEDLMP
Particulars: kinase PKCε; 1 µmol/L single concentration; read-out: %-inhibition at 1 µmol/L, PKCε.

Assay [9] has as its target panel of 255 wild-type kinases (Homo sapiens, UniProt Q13464). Particulars: kinase ROCK1; 1 µmol/L single concentration; read-out: %-inhibition at 1 µmol/L, ROCK1.

Take `CCN1C(=O)N(c2c(F)c(OC)cc(OC)c2F)Cc2cnc3[nH]c(CN4CCOCC4)cc3c21` [pemigatinib]: the inhibition at 1 µM in assay [1] was -6%; in [2], -13%; in assay [3] it was 0%; in assay [4], 99%; in assay [5] it was -5.29%; in assay [6], 10%. Further, the results for the inhibition at 1 µM in assay [7], in assay [8] and in assay [9] were -2.85%, 5% and -2.6%, respectively.

On to `CO[C@]1(C(=O)N[C@@H](C)c2ccc(-n3cc(F)cn3)nc2)CC[C@H](c2nc(C)cc(Nc3cc(C)[nH]n3)n2)CC1` [pralsetinib], for which the inhibition at 1 µM in assay [1] was 0.0555%; in assay [2], 0.199%; in assay [3] it was -0.586%; in [4] it was 99%; in assay [5], 53%; in assay [6], 37%. Moreover, the inhibition at 1 µM in assay [7] turned out to be 98%; in assay [8], 0.425%; in assay [9] it was 3.43%.

With `C[C@H]1Oc2cc(cnc2N)-c2c(nn(C)c2C#N)CN(C)C(=O)c2ccc(F)cc21` [lorlatinib], the inhibition at 1 µM in [1] is -3.52%; in assay [2], -7%; in assay [3], -1.23%; in assay [4] it was 5%; in assay [5], 1.48%; in assay [6], -2.34%. Further, the inhibition at 1 µM in assay [7] was 69%; in assay [8], 10%; in [9] it was 3.64%.

For `CCn1c(=O)c(-c2cc(NC(=O)Nc3ccccc3)c(F)cc2Br)cc2cnc(NC)cc21` [ripretinib], the inhibition at 1 µM in assay [1] was -0.186%; in assay [2], -19%; in assay [3] it was 0.403%; in assay [4] it was 93%; in assay [5], 4.22%; in [6] it was 18%. The results for the inhibition at 1 µM in assay [7], in assay [8] and in assay [9] were 63%, 6% and -2.14%, respectively.

In the case of `Cc1nc(NC(=O)N2CCC[C@H]2C(N)=O)sc1-c1ccnc(C(C)(C)C(F)(F)F)c1` [alpelisib], the inhibition at 1 µM in assay [1] was -4.21%; in assay [2] it was -5.44%; in assay [3] it was -2.72%; in assay [4], 5%; in assay [5], -0.621%; in [6], 16%. The figures for the inhibition at 1 µM in [7], in assay [8] and in assay [9] were 1.85%, 15% and -0.415%, respectively.

`FC(F)(F)c1ccc(CNc2ccc(Cc3c[nH]c4ncc(Cl)cc34)cn2)cn1` [pexidartinib]: the inhibition at 1 µM was 1.15% in [1]; -5% in assay [2]; 6% in [3]; 66% in [4]; -0.863% in [5]; 0.064% in [6]. The inhibition at 1 µM in assay [7] was 35%; in [8], 1.26%; in assay [9], 9%.

On to `CCc1nc(C(N)=O)c(Nc2ccc(N3CCC(N4CCN(C)CC4)CC3)c(OC)c2)nc1NC1CCOCC1` [gilteritinib], for which the inhibition at 1 µM in assay [1] is 1.74%; in assay [2], -6%; in assay [3], 24%; in assay [4] it was 99%; in assay [5], 81%; in [6], 40%. Further, the inhibition at 1 µM in [7] came out at 95%; in assay [8], 27%; in [9], 60%.

On to `O=C(Nc1cnn2ccc(N3CCC[C@@H]3c3cc(F)ccc3F)nc12)N1CC[C@H](O)C1` [larotrectinib], for which the inhibition at 1 µM was -7% in [1]; -16% in assay [2]; 0.0799% in assay [3]; -1% in assay [4]; -3.71% in assay [5]; -7% in assay [6]. For the same molecule, the inhibition at 1 µM in [7] is 46%; in assay [8] it was 8%; in assay [9], -5.36%.
